Several values for one entry are separate records, joined by “and”; a condition that tells them apart may be missing. Equal values may be shown once. Read-outs that look alike come from different tables or passages of the source.

Data set [1] relates to beta-hemolytic streptococci. Description: Broth microdilution MIC (Example 11). Conditions: read-out: MIC values. On the technique in general: Dilution methods test growth across graded concentrations, often in twofold steps.
For data set [2], the system named is Neisseria gonorrhoeae. Briefly: Agar dilution MIC (Example 11). The format is cell-based. For orientation: In agar dilution, organisms are placed on agar that contains the substance at set levels.
The subject of data set [3] is C. albicans. Briefly: Broth microdilution MIC, yeast (Example 11). The format is cell-based.
Data set [4] deals with vancomycin-intermediate Staphylococcus aureus (VISA). Briefly: Broth microdilution MIC (Example 12). Conditions: Staphylococcus aureus.
Data set [5] deals with Enterobacteriaceae. Description: Broth microdilution MIC (Example 11). Conditions: Escherichia coli, read-out: MIC values.
Data set [6] has as its system P. aeruginosa. Description: MIC against CF bacterial strains (Example 5). Conditions: Pseudomonas aeruginosa.
For data set [7], the system named is M. avium. Briefly: MIC against CF bacterial strains (Example 5). The format is cell-based, Mycobacterium avium. The method, then:
A range of CF-isolated strains of Mycobacterium avium and Mycobacterium abscessus were included; which allows for understanding of the activity against non-tubercular Mycobacteria (NTM). Two distinct bismuth-thiol compounds were evaluated, including BisEDT and BisBDT. […] The CF-isolates of greater clinical relevance, including both M abscessus spp. and Burkholderia spp., were both consistently found to be much more susceptible to BisEDT and BisBDT.

The test system of data set [8] is anaerobes. Description: Agar dilution MIC (Example 11). Conditions: read-out: MIC values. The format is cell-based.
Data set [9] is described as follows: Face mask inhalation in beagle dogs: hematology. The format is in vivo. Conditions: inhalation Day 0 and Day 7, successive samplings. The method, then: Once adequately conditioned to the restraint device and face-masks, the animals are individually exposed to the test article aerosols. Animals receive a single face-mask inhalation exposure in a ramp study design to test article aerosols for up to 60 min. Animal observations during and post exposure determine the tolerance of inhaled BisEDT aerosols.
Group 1 (vehicle) are exposed to a vehicle atmosphere for 30 minutes. Group 2 (50 μg/kg) are exposed to BisEDT for 30 minutes. Target concentrations and exposure durations for Groups 3-5 are based on the presence of any toxicity via clinical observations or gross necropsy findings. In each of Groups 3-5, if no adverse clinical signs of toxicity are observed, the next groups' exposure will be conducted at a higher target dose. If adverse clinical signs of toxicity are observed, the next groups' exposure will be conducted at a lower target dose. This approach is repeated for all BisEDT doses. The final documented exposure duration is the maximum tolerated dose or the maximum feasible dose.
The aerosol generation system couples a commercially available compressed air jet nebulizer to a chamber that allows the aerosols to transition to the animals. […]
Hematology samples are analyzed by automated (ADVIA™ 120 Hematology System, Siemens Medical Solutions Diagnostics, Tarrytown, N.Y.) analyses. Disposition will be recorded on the sample processing form.

`CC(S)C(C)S.[Bi]` (stereo not shown) [BisBDT, bismuth-2,3-butanedithiol]: the MIC in data set [1] is 0.03 to 2 µg/mL; in data set [2] (ATCC49226, N. gonorrhoeae MMX 683 (ATCC 49226), QC), 0.06 µg/mL; in [2] (N. gonorrhoeae MMX 6757, CTX NS), 0.06 µg/mL; in data set [2] (N. gonorrhoeae MMX 6791, CIP^R), 0.12 µg/mL; in data set [2] (N. gonorrhoeae MMX 6792, CIP^R), 0.12 µg/mL; in [2] (N. gonorrhoeae MMX 6793, CIP^R) it was 0.25 µg/mL. For the same molecule, the MIC in [2] (read-out: MIC values, QC isolate, ciprofloxacin-resistant, ceftriaxone non-susceptible isolates) was 0.06 to 0.25 µg/mL; in [3] (C. albicans MMX 7055, Sensitive, 48 hr), 2, 2 μg/mL; in data set [3] (Candida albicans, 24 h) it was 2 µg/mL; in [3] (Candida albicans, 48 h) it was 2 µg/mL; in [4] (NRS1 / VISA) it was 0.12 µg/mL; in [4] (NRS2 / VISA) it was at most 0.06 µg/mL. Further, the MIC in data set [4] (NRS3 / VISA) was determined as 0.25 µg/mL; in data set [4] (NRS4 / VISA) it was 0.25 µg/mL; in [4] (NRS13 / VISA), 0.12 µg/mL; in [4] (NRS18 / VISA), 0.25 µg/mL; in data set [4] (NRS22 / VISA) it was 0.25 µg/mL; in data set [4] (NRS24 / VISA), 1 µg/mL. Besides, the MIC in data set [4] (NRS27 / VISA) is 0.25 µg/mL; in [5], 0.5 to 2 µg/mL; in [6] (strain AGR1), 1 µg/mL; in data set [6] (strain AGR14, Multi-drug resistant), 1 µg/mL; in data set [6] (strain MR14, Multi-drug resistant) it was 1 µg/mL; in [7] (Mycobacterium avium), above 16 µg/mL. The MIC is 1 µg/mL in data set [7] (strain MAC101, MAC reference strain, blood isolate from HIV patient) and 1 to 4 µg/mL in [8].

With `C1C[S][Bi]([S]CC[S][Bi]2[S]CC[S]2)[S]1` [BisEDT, bismuth-1,2-ethanedithiol], the LUC in data set [9] (dog Group 2, lung deposited 55-56 ug/kg, lines = animal 2001, 2002 or Grp Avg) was 0.01 ^3/uL and 0.02 ^3/uL; in [9] (dog Group 4, lung deposited 176-197 ug/kg, lines = animal 4001-4004 or Grp Avg), 0.01 ^3/uL and 0.02 ^3/uL.
